One test has as its target T1, R261Q-PAH (Homo sapiens, UniProt P00439, R261Q).
T1 construct: expressed in transfected cells; host or cells: HEK293 EBNA, transient, pcDNA3-PAH
T1 sequence (P00439 1-452 R261Q): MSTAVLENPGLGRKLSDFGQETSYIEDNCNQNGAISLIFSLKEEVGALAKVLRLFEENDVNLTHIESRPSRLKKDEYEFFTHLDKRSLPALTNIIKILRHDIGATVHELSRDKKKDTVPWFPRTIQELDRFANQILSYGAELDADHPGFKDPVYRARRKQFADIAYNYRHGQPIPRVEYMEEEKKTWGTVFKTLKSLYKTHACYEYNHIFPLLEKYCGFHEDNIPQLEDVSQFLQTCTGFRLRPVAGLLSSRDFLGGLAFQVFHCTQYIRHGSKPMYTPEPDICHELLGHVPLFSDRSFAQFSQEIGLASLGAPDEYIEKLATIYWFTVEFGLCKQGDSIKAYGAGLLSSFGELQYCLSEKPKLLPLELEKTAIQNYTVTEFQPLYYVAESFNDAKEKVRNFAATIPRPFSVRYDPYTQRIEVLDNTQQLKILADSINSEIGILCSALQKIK
Nature of the test: PAH protein level and activity in HEK293 EBNA cells transiently expressing PKU mutant R261Q. The test is classed as cell-based. To be noted: 24 h. The protocol:
(§1) Cell lysates were prepared as indicated above.

Test [1] concerns the target tyrosine hydroxylase (TH) (Homo sapiens, UniProt P07101). Particulars: 68.9 μM, respect to 2% DMSO controls.
Test [2] addresses tryptophan hydroxylase 2 (TPH2) (Homo sapiens, UniProt Q8IWU9). To be noted: 68.9 μM, respect to 2% DMSO controls.
The target of another test is T2, I65T-PAH (Homo sapiens, UniProt P00439, I65T).
T2 construct: expressed in transfected cells; host or cells: HEK293 EBNA, transient, pcDNA3-PAH
T2 sequence (P00439 1-452 I65T): T1 sequence (P00439 1-452 R261Q) with I65T, Q261R
The experiment in a line: PAH protein level and activity in HEK293 EBNA cells transiently expressing PKU mutant I65T. Format: cell-based. To be noted: 24 h. As to the method:
as §1

Test [3] concerns the target truncated dimeric hPAH ΔN102/ΔC24 (Homo sapiens, UniProt P00439). To be noted: 137.8 μM compound, 2% DMSO, 1 mM L-Phe. The protocol: Tetrameric full length wild-type (WT) human PAH (hPAH) and truncated ΔN102/ΔC24-hPAH corresponding to a dimeric form containing the catalytic domain of known crystal structure were recombinantly expressed in E. coli fused to maltose-binding protein and purified by amylose-affinity chromatography and further cleaved and isolated to homogeneity essentially as described [Martinez, A., et al., Biochem. J., 1995. 306: p. 589-597]. Protein concentration was measured in a NanoDrop spectrophotometer (Thermo Scientific) using the absorbance at 280 nm and the theoretical molar extinction coefficient of 49780 M^−1 cm^−1 for WT-PAH and 46675 M^−1 cm^−1 for ΔN102/ΔC24-hPAH.
PAH activity on isolated recombinant enzymes was measured at 37° C. for 1 min with quantification of L-Tyr formed by HPLC with fluorimetric detection, essentially as described [Martinez et al. supra] with the indicated concentrations of the compounds. […] After an equilibration of the plate at 37° C. for 3 min the reaction was initiated by adding 75 μM BH4 (Schircks Laboratories, Jona, Switzerland) in 5 mM DTT and stopped after 1 min by adding 50 μl of 2% (v/v) acetic acid in ethanol (all concentrations referred to a final reaction volume of 50 μl) prior to determination of L-Tyr produced by HPLC with fluorimetric detection (γexcitation=274 nm; γemission=304 nm). Controls with 2% DMSO without compound were routinely assayed as references for data processing. A BRAVO automated liquid handling platform was used in these assays.
The steady-state kinetic parameters were estimated with 0.25 μg hPAH (0.965 μM subunit), 1 mM L-Phe and different BH4 concentrations in the range 0-400 μM, and with 100 μM BH4 and L-Phe (0-1 mM). The saturation curves were fitted to hyperbolic (for BH4) or sigmoidal (for L-Phe) kinetic models with SigmaPlot v. 9.0. (SPSS). Kinetic parameters are presented as mean±SEM obtained from nonlinear regression analysis.

Where a chain is given by its changes, count along the chain named.

Sequence of tryptophan hydroxylase 2 (TPH2) (Q8IWU9 whole entry, species assumed): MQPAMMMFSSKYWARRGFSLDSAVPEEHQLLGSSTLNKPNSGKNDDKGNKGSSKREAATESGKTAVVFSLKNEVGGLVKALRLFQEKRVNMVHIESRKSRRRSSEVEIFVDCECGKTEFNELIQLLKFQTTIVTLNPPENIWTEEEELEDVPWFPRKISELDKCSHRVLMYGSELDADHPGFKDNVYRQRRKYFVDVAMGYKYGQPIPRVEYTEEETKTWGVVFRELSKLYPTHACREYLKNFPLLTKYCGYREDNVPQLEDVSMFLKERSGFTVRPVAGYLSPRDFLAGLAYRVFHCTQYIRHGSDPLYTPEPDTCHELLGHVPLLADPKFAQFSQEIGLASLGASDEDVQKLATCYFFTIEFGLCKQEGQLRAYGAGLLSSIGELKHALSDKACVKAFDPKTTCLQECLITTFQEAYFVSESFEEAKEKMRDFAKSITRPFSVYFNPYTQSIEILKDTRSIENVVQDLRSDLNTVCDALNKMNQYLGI
Sequence of tyrosine hydroxylase (TH) (P07101 whole entry): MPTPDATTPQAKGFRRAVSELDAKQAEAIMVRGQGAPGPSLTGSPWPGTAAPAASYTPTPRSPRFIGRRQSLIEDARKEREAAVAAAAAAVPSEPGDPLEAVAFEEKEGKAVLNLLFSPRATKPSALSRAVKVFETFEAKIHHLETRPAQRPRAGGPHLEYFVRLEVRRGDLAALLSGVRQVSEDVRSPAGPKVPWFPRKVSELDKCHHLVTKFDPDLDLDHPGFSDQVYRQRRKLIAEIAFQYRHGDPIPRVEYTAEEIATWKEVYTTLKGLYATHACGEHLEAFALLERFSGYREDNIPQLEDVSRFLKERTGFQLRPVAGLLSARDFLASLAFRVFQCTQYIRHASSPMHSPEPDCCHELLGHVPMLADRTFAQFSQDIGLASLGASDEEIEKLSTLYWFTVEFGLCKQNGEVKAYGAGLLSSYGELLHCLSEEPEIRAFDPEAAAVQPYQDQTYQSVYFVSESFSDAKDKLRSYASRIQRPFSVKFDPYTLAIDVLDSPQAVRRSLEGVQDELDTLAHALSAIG
Sequence of truncated dimeric hPAH ΔN102/ΔC24 (P00439 103-428 limits assumed): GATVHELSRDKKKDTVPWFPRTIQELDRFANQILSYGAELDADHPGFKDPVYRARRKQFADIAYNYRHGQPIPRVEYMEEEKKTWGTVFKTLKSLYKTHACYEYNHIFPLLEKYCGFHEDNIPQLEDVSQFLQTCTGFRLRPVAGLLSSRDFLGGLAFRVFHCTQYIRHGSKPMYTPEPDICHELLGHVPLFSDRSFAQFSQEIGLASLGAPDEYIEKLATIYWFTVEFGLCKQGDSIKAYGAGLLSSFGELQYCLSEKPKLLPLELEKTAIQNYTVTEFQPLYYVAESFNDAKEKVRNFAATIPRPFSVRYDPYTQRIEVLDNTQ

With `COc1cc(Cc2cnc(N)nc2N)cc(OC)c1OC` [c53, trimethoprim], on R261Q-PAH (200 μM each), the “protein and activity, mutant R261Q, Compound 53 and BH2 together” value was “trends for additive effects”. In addition, on R261Q-PAH (200 μM, 1% DMSO), the “PAH activity, mutant R261Q” value is “greatly increased” and the “hPAH protein level, mutant R261Q” value was “greatly increased”. Also, in test [1], the “effect on TH activity” value is listed as “did not have large effect”. In addition, the “effect on TPH2 activity” value in test [2] was “did not have large effect”. For the same molecule, on I65T-PAH (200 μM each), the “protein and activity, mutant I65T, Compound 53 and BH2 together” value is “trends for additive effects”. At I65T-PAH (200 μM, 1% DMSO), the “PAH activity, mutant I65T” value is “greatly increased” and the “hPAH protein level, mutant I65T” value was “greatly increased”. In test [3], the “effect on Vmax and Km for BH4” value was “did not change the Vmax or Km-values for BH4”.

Source of the values: US10265303B2, “Hyperphenylalaninemia and treatments thereof” (BERGEN TEKNOLOGIOVERFØRING AS, priority 2015, dated 2019).
